In patent publication US20100048660A1, “TREATMENT OF DUCHENNE MUSCULAR DYSTROPHY” (priority 2006, published 2010) one finds activity data, which are given here for 25 compounds.

Each structure is given as a SMILES string. Some results are limits rather than exact numbers.

The first experiment relates to Utrophin A promoter linked to a luciferase reporter gene (H2K/mdx/Utro A reporter cell line). Put plainly: Luciferase reporter assay (murine H2K cells). In kind it is cell-based. The conditions noted are these: Mus musculus; Table 1; murine H2K mdx myoblasts, compound final concentration 10 μM, 48 hrs; read-out: Activity (luciferase reporter assay, relative to control). The method, then:
1. Luciferase Reporter Assay (Murine H2K Cells)
The cell line used for the screen is an immortalized mdx mouse H2K cell line that has been stably transfected with a plasmid containing ≈5 kb fragment of the Utrophin A promoter including the first untranslated exon linked to a luciferase reporter gene (see FIG. 1).
Under conditions of low temperature and interferon containing media, the cells remain as myoblasts. These are plated into 96 well plates and cultured in the presence of compound for three days. The level of luciferase is then determined by cell lysis and reading of the light output from the expressed luciferase gene utilising a plate luminometer.
The H2K/mdx/Utro A reporter cell line was passaged twice a week until ≦30% confluent. The cells were grown at 33° C. in the presence of 10% CO2
The H2K/mdx/Utro A reporter cell line cells were plated out into 96 well plates (Falcon 353296, white opaque) at a density of approximately 5000 cells/well in 190 μl normal growth medium. The plates were then incubated at 33° C. in the presence of 10% CO2 for 24 hrs.
Compounds were dosed by adding 10 μl of diluted compound to each well giving a final concentration of 10 μM. The plates were then incubated for a further 48 hrs
Cells were then lysed in situ following the manufacture's protocols (Promega Steady-Glo Luciferase Assay System (E2520). Then counted for 10 seconds using a plate luminometer (Victorl420).
In general terms: Reporter assays use an easily measured gene product as a stand-in for the process of interest.
On to `CC(=O)Nc1ccc2nn(-c3ccc(Cl)cc3)nc2c1` [Example 39, N-(2-(4-chlorophenyl)-2H-benzo[d][1,2,3]triazol-5-yl)acetamide], for which the activity at 10 µM was above 401%. On the same count and under the same terms, the result for `Nc1ccc2nn(-c3ccc(N4CCCCC4)cc3)nc2c1` [Example 40, 2-(4-(piperidin-1-yl)phenyl)-2H-benzo[d][1,2,3]triazol-5-amine] reads 201 to 300%; that for `CN(C)c1ccc(-n2nc3ccc(N)cc3n2)cc1` [Example 41, 2-(4-(dimethylamino)phenyl)-2H-benzo[d][1,2,3]triazol-5-amine], 301 to 400%.

Regarding `CN1CCN(c2ccc(-n3nc4ccc(N)cc4n3)cc2)CC1` [Example 42, 2-(4-(4-methylpiperazin-1-yl)phenyl)-2H-benzo[d][1,2,3]triazol-5-amine], the activity at 10 µM is below 200%. In the case of `Cc1cc2nn(-c3ccc(Cl)cc3)nc2cc1N` [Example 43, 2-(4-chlorophenyl)-6-methyl-2H-benzo[d][1,2,3]triazol-5-amine], the activity at 10 µM was above 401%.

For `CS(=O)(=O)c1ccc2cn(-c3ccc(Cl)cc3)nc2c1` [Example 44, 2-(4-chlorophenyl)-6-(methylsulfonyl)-2H-indazole], the activity at 10 µM is 201 to 300%.

With `O=[N+]([O-])c1ccc2cn(-c3ccc(Cl)cc3)nc2c1` [Example 45, 2-(4-chlorophenyl)-6-nitro-2H-indazole], the activity at 10 µM is below 200%. For `CC(C)C(=O)Nc1ccc2cn(-c3ccc(Cl)cc3)nc2c1` [Example 46, N-(2-(4-chlorophenyl)-2H-indazol-6-yl)isobutyramide], the activity at 10 µM is above 401%. On the same count and under the same terms, the result for `CS(=O)(=O)c1ccc2nn(-c3ccc(Cl)cc3)[n+]([O-])c2c1` [Example 47, 2-(4-chlorophenyl)-6-(methylsulfonyl)-2H-benzo[d][1,2,3]triazole 1-oxide] reads below 200%. Consider `Clc1ccc(-n2cc3ccccc3n2)cc1` [Example 48, 2-(4-chlorophenyl)-2H-indazole], for which the activity at 10 µM is above 401%. Still for that read-out and setting: in the case of `CS(=O)(=O)c1ccc2nn(-c3ccc(Cl)cc3)nc2c1` [Example 49, 2-(4-chlorophenyl)-5-(methylsulfonyl)-2H-benzo[d][1,2,3]triazole] it was below 200%; in that of `CS(=O)(=O)c1ccc2nn(-c3ccc(Cl)c(Cl)c3)nc2c1` [Example 50, 2-(3,4-dichlorophenyl)-5-(methylsulfonyl)-2H-benzo[d][1,2,3]triazole], 201 to 300%. On the same count and under the same terms, in the case of `CCS(=O)(=O)c1ccc2nn(-c3ccc(Cl)c(Cl)c3)nc2c1` [Example 51, 2-(3′,4′-dichlorophenyl)-5-(ethylsulfonyl)-benzotriazole] it was 301 to 400%.

Consider `CCS(=O)(=O)c1ccc2nn(-c3ccc(Cl)cc3)nc2c1` [Example 52, 2-(4′-chlorophenyl)-5-(ethylsulfonyl)-benzotriazole], for which the activity at 10 µM was above 401%. Same read-out and setting: the result for `CC(C)C(=O)Nc1ccc2nn(-c3ccc(Cl)c(Cl)c3)nc2c1` [Example 53, N-(2-(3,4-Dichlorophenyl)-2H-benzo[d][1,2,3]triazol-5-yl)isobutyramide] reads above 401%; that for `CS(=O)(=O)c1ccc2nn(-c3ccc4ccccc4c3)[n+]([O-])c2c1` [Example 54, 6-(Methylsulfonyl)-2-(naphthalen-2-yl)-2H-benzo[d][1,2,3]triazole 1-oxide], 201 to 300%; that for `CS(=O)(=O)c1ccc2nn(-c3ccc4ccccc4c3)nc2c1` [Example 55, 5-(Methylsulfonyl)-2-(naphthalen-2-yl)-2H-benzo[d][1,2,3]triazole], above 401%. In the case of `CC(C)S(=O)(=O)c1ccc2cn(-c3ccc(Cl)cc3)nc2c1` [Example 56, 2-(4′-Chlorophenyl)-6-(isopropylsulfonyl)-2H-indazole], the activity at 10 µM was above 401%.

The same experiment, now with this note: Mus musculus; Table 2; murine H2K mdx myoblasts, compound final concentration 10 μM, 48 hrs; read-out: Activity (luciferase reporter assay, relative to control).
As to `Cc1ccc(-n2nc3ccc(N)cc3n2)cc1C` [Example 63, 2-(3,4-dimethylphenyl)-2H-benzo[d][1,2,3]triazol-5-amine], the activity at 10 µM was below 200%. In the case of `CCOc1ccc(-n2nc3cc(C)c(N)cc3n2)cc1` [Example 64, 2-(4-ethoxyphenyl)-6-methyl-2H-benzo[d][1,2,3]triazol-5-amine], the activity at 10 µM was in the range of 201 to 300%.

With `Cc1ccc(-n2nc3cc(C)c(N)cc3n2)cc1` [Example 65, 6-methyl-2-p-tolyl-2H-benzo[d][1,2,3]triazol-5-amine], the activity at 10 µM is 201 to 300%. Still for that read-out and setting: in the case of `COc1ccc(-n2nc3cc(C)c(NC(C)=O)cc3n2)cc1` [Example 66, N-(2-(4-methoxyphenyl)-6-methyl-2H-benzo[d][1,2,3]triazol-5-yl)acetamide] it was below 200%; in that of `CC(=O)Nc1cc2nn(-c3ccccc3)nc2cc1C` [Example 67, N-(6-methyl-2-phenyl-2H-benzo[d][1,2,3]triazol-5-yl)acetamide], 201 to 300%; in that of `CCc1ccc(-n2nc3ccc(N)cc3n2)cc1` [Example 68, 2-(4-ethylphenyl)-2H-benzo[d][1,2,3]triazol-5-amine], 201 to 300%.

As for `CC(=O)Nc1ccc2nn(-c3ccc(F)cc3)nc2c1` [Example 69, N-(2-(4-fluorophenyl)-2H-benzo[d][1,2,3]triazol-5-yl)acetamide], the activity at 10 µM fell in the range of 201 to 300%.
